Measured values taken from US9023810B2, “Use of a compound comprising D-mannoheptulose and/or perseitol for treating and preventing innate immunity modification diseases” (Laboratories Expanscience, priority 2004, dated 2015).
Values joined by “and” are separate entries in the source; they are usually repeats but may differ in a detail not shown here. Equal entries are not always repeated.

How the values were obtained:
hBD-2 [1] = assay: Induction of hBD-2 in normal human keratinocytes, ELISA on cells related to MTT (Examples 3, 6, 7); format: cell-based; settings: for production of hBD-2 (in words): Example 7, tested separately, commercial origin; for Modulation of the synthesis of HBD-2 (% increase with respect to control cells): proportions corresponding to 1% of a 5% solution of MS of batch A, i.e. 0.05% MS
Description: The keratinocytes of normal humans were inoculated in a 96 well plaque (about 20000 cells/well), in the presence of a specific medium enriched in calcium (final concentration 1.3 mM), as previously described in the publication “Human β-Defensin-2 production in Keratinocytes is regulated by Interleukin-1, Bacteria, and the State of Differentiation”, Alice Y. Liu et al., The Society for Investigative Dermatology, vol. 118, No. 2, February 2002, pages 275 to 281.
After an incubation of 24 hours at 37° C., 5% CO2: • 2 rinses with 200 μl/well of PBS (phosphate buffer in saline solution) • stimulation of the cells by 200 μl/well (in a Ca^++ supplemented medium): • by the hydrosoluble extract of sugars of avocado at concentrations of 0.5, 0.05 and 0.005 w/w of dry matter • by IL-1β at a concentration of 100 ng/ml (positive control of induction of hBD-2) III. End of Treatment (J2): ELISA
After 24 hours of incubation, the induction of the hBD-2 was evaluated by an ELISA method with a specific antibody (goat polyclonal to human BD2; Abcam; ab9871). The results obtained with the hydrosoluble extract of sugars of avocado, batch A, comprising 40% of D-mannoheptulose and 40% perseitol, based on the dry weight, are summarised in Table 8 below:
The same test as in example 3 was carried out with: • a mixture of fructose (5%), glucose (5%) and saccharose (3%); • D-mannoheptulose (40%); • perseitol (40%); • a mixture of fructose (5%), glucose (5%) saccharose (3%) and D-mannoheptulose (40%); • a mixture of fructose (5%), glucose (5%) saccharose (3%) and perseitol (40%); • a mixture of fructose (5%), glucose (5%) saccharose (3%) D-mannoheptulose (40%) and perseitol (40%); and • an extract of avocado sugars (batch A).
The same test as in example 3 was carried out with commercially available D-mannoheptulose and perseitol.

[2] = test system: tumorous cells of Ehrlich ascites sarcoma; settings: perseitol associated with a potassium ion; cited from earlier work
hBD-2 [3] = assay: Expression of hBD-2 modulated by IL-4 in keratinocytes, in vitro modelling of atopic dermatitis; format: cell-based, human
Description: The keratinocytes of normal humans were inoculated as described in example 3.
After 24 hours of incubation at 37° C., 5% of CO2, the culture medium was eliminated and the cellular carpet was rinsed twice with PBS. The cells were then treated for 24 hours under the conditions defined below: • Control cells: medium only • IL-1β at 100 ng/ml (positive control for induction of hBD-2) • IL-4 at 50 ng/ml • Hydrosoluble extract of sugars of avocado (batch A) at 0.5% w/w of dry matter • IL-1β at 100 ng/ml and IL-4 at 50 ng/ml • IL-4 at 50 ng/ml and hydrosoluble extract of sugars of avocado (batch A) at 0.05% w/w of dry matter • IL-1β at 100 ng/ml and IL-4 at 50 ng/ml and hydrosoluble extract of sugars of avocado (batch A) at 0.05% w/w of dry matter
At the end of the treatment, the induction of hBD-2 was evaluated by an ELISA method on cells; in parallel, in order to determine the total number of cells in each well, a test with MTT was run in parallel on the cells treated under the same conditions. Thus, for each condition, the OD450 hBD-2 was divided by the OD570 MTT to obtain the quantity of hBD-2 produced per living cell.

hBD-3 = assay: Induction of hBD-3 in KB epithelial cells, ELISA on cells related to MTT; format: cell-based, human; settings: 48 hours, 100 ng/ml
Description: (§1) The cells KB (ATCC CCL-17), line of epithelial cells from a human oral carcinoma, commonly used in studies of the buccal cavity, were inoculated in plaques of 96 wells and cultivated in RPMI 1640 (Roswell Park Memorial Institute Medium) with Glutamax™1 at 10% VFS (veal fœtal serum)+antibiotics.
(§2) After 24 hours of incubation, the culture medium was eliminated and the cellular carpet was rinsed twice with PBS.
(§3) The cells were then treated under the conditions defined above during 24 and 48 hours: • Control cells: medium only • TNFα (commercialised by Sigma) at 100 ng/ml • hydrosoluble extract of sugars of avocado (40% mannoheptulose/40% perseitol) at 0.005-0.05 and 0.5 w/w (of dry matter) (batch A) 3. End of Treatment • Analysis of the antimicrobial peptides by ELISA on cells
(§4) After 48 hours of incubation under the different treatment conditions, the β-defensins 2 and 3 and the LL-present in the cells KB were analysed by an ELISA method on cells.
(§5) In order to determine the total number of cells in each well, a test with MTT was run in parallel on the cells treated under the same conditions. • Utilisation of the results
(§6) For each condition of treatment, the OD450 AMPs (antimicrobial peptides) was divided by the OD570 MTT to calculate the quantity of AMPs produced per living cell.
(§7) The averages and the standard deviations were calculated for each condition and the induction of different AMPS was calculated as the percentage increase with respect to the control cells.

hBD-2 [4] = assay: Induction of hBD-2 in KB epithelial cells, ELISA on cells related to MTT; format: cell-based, human; settings: 48 hours, 100 ng/ml
Description: as §1, §2, §3
After 48 hours of incubation under the different treatment conditions, the β-defensins 2 and 3 and the LL-present in the cells KB were analysed by an ELISA method on cells. […]
as §6, §7

LL-37 = assay: Induction of LL-37 in KB epithelial cells, ELISA on cells related to MTT; format: cell-based, human; settings: 48 hours, 100 ng/ml
Description: as §1, §2, §3, §4, §5, §6, §7

[5] = Example 7, commercial origin, 0.0012%
[6] = Example 7, commercial origin, 0.012%

Compound: O=C(CO)[C@@H](O)[C@@H](O)[C@H](O)[C@H](O)CO [D-mannoheptulose]
- effect on the synthesis of HBD-2 (in words) (hBD-2 [1]; Example 6, sugars in the proportions of batch A): more active than the perseitol
- Average (hBD-2, same test as in example 3) (hBD-2 [1]; [5]): 0.089
- Average (hBD-2, same test as in example 3) (hBD-2 [1]; [6]): 0.089
- production of hBD-2 (in words) (hBD-2 [1]): capable of inducing the production of hBD-2
- Modulation of the synthesis of HBD-2 (% increase with respect to control cells) (hBD-2 [1]): 31%

Compound: OCC(O)C(O)C(O)C(O)C(O)CO (stereo not drawn) [Perseitol]
- incorporation of leucine-3H into tumorous cells (in words) [2]: enables leucine-3H to be incorporated
- Average (hBD-2, same test as in example 3) (hBD-2 [1]; [5]): 0.063
- Average (hBD-2, same test as in example 3) (hBD-2 [1]; [6]): 0.090
- production of hBD-2 (in words) (hBD-2 [1]): capable of inducing the production of hBD-2
- Modulation of the synthesis of HBD-2 (% increase with respect to control cells) (hBD-2 [1]): 12%

Compound: IL-1β: positive control of induction of hBD-2, 100 ng/ml
- hBD-2/MTT (single values) (hBD-2 [3]; 24 hours, IL-1β 100 ng/ml): 0.291 OD and 0.308 OD and 0.347 OD
- increase in the synthesis of hBD-2 with respect to the control cells (hBD-2 [3]; IL-1β 100 ng/ml): 80%
- Average (hBD-2, same test as in example 3) (hBD-2 [1]; Example 7, positive control): 0.104
- % increase vs. control (hBD-2 [1]; keratinocytes, 24 h, 100 ng/ml): 128%
- hBD-2/MTT (single values) (hBD-2 [1]; keratinocytes, 24 h, 100 ng/ml): 0.223 OD and 0.324 OD and 0.273 OD and 0.322 OD

Compound: IL-4: interleukine-4, mediator of atopy, 50 ng/ml
- hBD-2/MTT (single values) (hBD-2 [3]; 24 hours, IL-4 50 ng/ml): 0.160 OD and 0.158 OD and 0.163 OD
- hBD-2/MTT Average (hBD-2 [3]; 24 hours, IL-4 50 ng/ml): 0.160 +/− 0.002 OD
- inhibition of the synthesis of hBD-2 induced by IL-1β (hBD-2 [3]; IL-4 50 ng/ml with IL-1β 100 ng/ml): 32%
- influence on the quantity of hBD-2 expressed by the keratinocytes (in words) (hBD-2 [3]; IL-4 alone, 50 ng/ml): no influence

Compound: TNFα
- Induction of HBD-3 % increase (hBD-3): 30%
- OD hBD3/OD MTT (wells) (hBD-3): 0.431 and 0.448 and 0.399 and 0.407 and 0.374
- OD hBD3/OD MTT average (hBD-3): 0.410
- Induction of HBD-2 % increase (hBD-2 [4]): 239%
- OD hBD2/OD MTT average (hBD-2 [4]): 0.037
- Induction of LL-37 % increase (LL-37): 88%
- OD LL-37/OD MTT (wells) (LL-37): 0.080 and 0.072 and 0.077 and 0.091 and 0.082 and 0.076
- OD LL-37/OD MTT average (LL-37): 0.080
